# Values joined by “and” are separate entries in the source; they are usually repeats but may differ in a detail not shown here. Identical values can stand only once.
# What was measured:
# [1] = test system: carrageenan-induced rat paw oedema; assay: carrageenan-induced rat paw oedema assay; type: in vivo, Sprague–Dawley rats; details: for Inhibition of acute inflammation % inh / Swel (mean difference in rat paw volume between right and left paw): dose equivalent to 70 mg kg-1 ibuprofen; for Swel (mean difference in rat paw volume between right and left paw): DMSO
# Protocol: According to a priori test results, experiments were conducted on young adult male Sprague–Dawley rats (5 rats per group), weighing 140–170 g. The animals were housed at cages in a temperature controlled (25 ± 1 °C) environment and were fed ad libitum with standard laboratory chow and allowed free access to water. […] The animal protocol is in accordance with the Animal Ethical Care regulations in the Faculty of Pharmacy, Helwan University.
# Compounds (equimolar to the reference drug) were dissolved in DMSO and administrated subcutaneously. One hour later, paw oedema was induced by subplantar injection of 0.1 ml of 1% carrageenan (Sigma-Aldrich, St. Louis, MO) into the right hind paw. Paw volume was measured using a water plethysmometer (Basile, Comerio, Italy). The difference between the right and left paw volume was measured at 1, 2, 3, and 4 h after induction of inflammation.
# The control group (five rats per group) received DMSO subcutaneously and carrageenan in the subplantar region. Results were expressed as percentage inhibition of inflammation.
Compound,melting point [°C],Inhibition of acute inflammation % inh ([1]; 1 h) [%],Swel (mean difference in rat paw volume between right and left paw) ([1]; 1 h after carrageenan),Inhibition of acute inflammation % inh ([1]; 2 h) [%],Swel (mean difference in rat paw volume between right and left paw) ([1]; 2 h after carrageenan),Inhibition of acute inflammation % inh ([1]; 3 h) [%],Swel (mean difference in rat paw volume between right and left paw) ([1]; 3 h after carrageenan),Inhibition of acute inflammation % inh ([1]; 4 h) [%],Swel (mean difference in rat paw volume between right and left paw) ([1]; 4 h after carrageenan),"inflammation reduction % (4h) ([1]; rat paw oedema, 4 h time interval, subcutaneous, equimolar to ibuprofen 70 mg kg-1)"
"Cc1cc(C)c(C#N)c(=S)[nH]1 [Compound 1, 1,2-Dihydro-4,6-dimethyl-2-thioxopyridine-3-carbonitrile]",,0,0.503,0,0.353,38.725,0.33,43.91,0.353,
"CSc1nc(C)cc(C)c1C#N [Compound 3a, S-Methyl-4,6-dimethyl-2-thiopyridine-3-carbonitrile]",,0,0.382,0,0.363,12.438,0.476,43.7,0.354,
"CCOC(=O)c1sc2nc(C)cc(C)c2c1N [Compound 5, Ethyl-3-amino-4,6-dimethylthieno[2,3-b]pyridine-2-carboxylate]",,0,0.393,0,0.46,28.921,0.386,46.03,0.34,
"Cc1cc(C)c2c(N)c(C(=O)NN)sc2n1 [Compound 6, 3-Amino-4,6-dimethylthieno[2,3-b]pyridine-2-carbazide]",,0,0.410,0,0.486,38.84,0.332,58.67,0.26,
"COc1ccc(C=NNC(=O)c2sc3nc(C)cc(C)c3c2N)cc1 [Compound 7c, 3-Amino-4,6-dimethyl-thieno [2,3-b] pyridine-2-carboxylic acid (4-methoxy-benzylidene)-hyrazide]",,11.59,0.203,25.64,0.193,58.3,0.226,63.49,0.23,
"CC(=O)N(C(C)=O)n1c(C)nc2c(sc3nc(C)cc(C)c32)c1=O [Compound 10b, 3-Diacetylamino-2,7,9-trimethylpyrido [3',2':4,5]thieno[3,2-d]pyrimidin-4(3H)-one]",133 to 135,,,,,,,,,
"CC(C)Cc1ccc(C(C)C(=O)O)cc1 (stereo not drawn) [Ibuprofen, reference compound]",,6.08,,45,,60.66,,69.52,,69.5% and 69.52%

# Continued, in another order:
melting point [°C],Compound,Inhibition of acute inflammation % inh ([1]; 1 h) [%],Swel (mean difference in rat paw volume between right and left paw) ([1]; 1 h after carrageenan),Inhibition of acute inflammation % inh ([1]; 2 h) [%],Swel (mean difference in rat paw volume between right and left paw) ([1]; 2 h after carrageenan),Inhibition of acute inflammation % inh ([1]; 3 h) [%],Swel (mean difference in rat paw volume between right and left paw) ([1]; 3 h after carrageenan),Inhibition of acute inflammation % inh ([1]; 4 h) [%],Swel (mean difference in rat paw volume between right and left paw) ([1]; 4 h after carrageenan),"inflammation reduction % (4h) ([1]; rat paw oedema, 4 h time interval, subcutaneous, equimolar to ibuprofen 70 mg kg-1)"
105 to 107,CC1=CC(C)=C(C#N)C2SC(=Cc3ccccc3)C(=O)N12 (racemic) [Compound 2a],0,0.457,0,0.595,16.605,0.453,21.95,0.491,
180 to 182,"CC1=CC(C)=C(C#N)C2SCN(c3ccccc3)CN12 (racemic) [Compound 4a, (±)3-Aryl-2,3,4,9a-tetrahydro-6,8-dimethylpyrido[2,1-b][1,3,5]thiadiazine-9-carbonitrile]",0,0.394,0,0.407,38.174,0.336,43.38,0.356,
125 to 127,CC1=CC(C)=C(C#N)C2SCN(Cc3ccccc3)CN12 (racemic) [Compound 4c],0,0.45,4.78,0.22,7.39,0.213,35.08,0.409,
93,"CCOC(=O)CSc1nc(C)cc(C)c1C#N [Compound 3b, ethyl 2-(3-cyano-4,6-dimethylpyridin-2-ylthio)acetate]",,,,,,,,,
300 to 302,"Cc1cc(C)c2c(n1)sc1c(=O)n(N=Cc3ccccc3)nnc12 [Compound 8a, 7,9-Dimethyl-3-[(phenylmethylene)amino]pyrido[3′,2′:4,5]thieno[3,2-d][1,2,3]triazin-4(3H)-one]",0,0.256,14.1,0.223,30.75,0.376,53.96,0.29,
150 to 152,"Cc1cc(C)c2c(N)c(-n3nc(C)cc3C=C=O)sc2n1 [Compound 9b, 3-Amino-2-[carbonyl (3,5-dimethyl-pyrazol-1-yl)]-4,6-dimethylthieno[2,3-b] pyridine]",,,,,,,,,

# — article PMC6009894, “Molecular modelling insights into a physiologically favourable approach to eicosanoid biosynthesis inhibition through novel thieno[2,3-b]pyridine derivatives” (Journal of Enzyme Inhibition and Medicinal Chemistry, 2018)
